This is an account of results in patent publication US20080254023A1, “Treating Gliosis, Glial Scarring, Inflammation or Inhibition of Axonal Growth in the Nervous System by Modulating Eph Receptor” (THE UNIVERSITY OF QUEENSLAND, priority 2004, published 2008).

Common to all, as to assay type: cell-based, mice
In test [1] the test system is EphA4. Nature of the test: EphA4 expression in cultured astrocytes (Western analysis). As to conditions: 72 hrs, compared with untreated controls. How it is done:
(§1) For biochemical analysis of astrocytes, factors as indicated were added to 80% confluent monolayers in 10 cm plates (Falcon, USA) for the times indicated. EphrinA5-Fc (available from the inventors) was pre-complexed as above.
(§2) Cells were lysed and a sample kept aside for analysis of total protein levels. The remainder of the lysate was used for immunoprecipitation in EphA4 or Rho activation assays. EphA4 activation was determined by immunoprecipitation of phosphorylated proteins using anti-phosphotyrosine (Cell Signaling), followed by Western transfer and detection of activated or total EphA4 using a rabbit anti-EphA4 antibody (kindly provided by Dr. D. Wilkinson, National Institute for Medical Research, London). Rho activation assays were performed using the Rhotekin RBD assay, according to the manufacturer's instructions (Upstate, USA). Total EphA4 and β-actin expression levels were determined in non-lesioned and 7 d post-lesioned spinal cords by Western analysis using rabbit anti-EphA4 antibody as above and mouse anti-β-actin antibody (Sigma). Densitometry was performed on the autoradiographs using NIH Image software to determine relative levels of the EphA4 bands and normalized to β-actin levels.

The test system of the next test is Rho. The test is described as follows: Rho activation in cultured astrocytes (Rhotekin RBD assay). As for the experimental part:
as §1, §2

The next test relates to astrocytes. The test is described as follows: In vitro astrocyte proliferation assay (MTT). The note with it: up to 72 hrs, LIF 1000 U/ml, IFN-γ 100 U/ml; for proliferation of WT astrocytes: wildtype astrocytes. As for the experimental part:
The [3-(4,5-dimethylthiazol-2-yl)-2,5-diphenyl]tetrazolium bromide (MTT) assay, which determines mitochondrial activity in living cells, is commonly used as a proliferation assay (Mosmann, J Immunol Methods 65:55-63, 1983). Living cells transform the tetrazolium ring into dark blue formazan crystals, which can be quantified by reading the optical density (O.D.); an increase in O.D. correlates with an increase in cell number over time. Wildtype and EphA4−/− astrocytes were plated on 96 well plates (Falcon) at 3×10^3 cells/well in DMEM supplemented with 10% FCS in the presence or absence of either LIF (1000 U/ml) or IFN-γ (100 U/ml). The MTT assay was performed at 2, 24, 48 and 72 hours after plating. MTT (0.25 mg/ml) was incubated with the cells at each timepoint for 2 hours at 37° C., the cells were then lysed with an equal volume of acidic isopropanol (0.04M HCL in absolute isopropanol) and the O.D. of the formazan product was measured at 550-650 nm.

The target of test [2] is T1, EphA4 (Mus musculus, UniProt Q03137).
T1 construct: chamber slides (Falcon, USA) containing wildtype or EphA4−/− astrocyte monolayers; endogenous in cells; host or cells: primary purified astrocyte cultures from wildtype mice
T1 sequence (Q03137 20-986): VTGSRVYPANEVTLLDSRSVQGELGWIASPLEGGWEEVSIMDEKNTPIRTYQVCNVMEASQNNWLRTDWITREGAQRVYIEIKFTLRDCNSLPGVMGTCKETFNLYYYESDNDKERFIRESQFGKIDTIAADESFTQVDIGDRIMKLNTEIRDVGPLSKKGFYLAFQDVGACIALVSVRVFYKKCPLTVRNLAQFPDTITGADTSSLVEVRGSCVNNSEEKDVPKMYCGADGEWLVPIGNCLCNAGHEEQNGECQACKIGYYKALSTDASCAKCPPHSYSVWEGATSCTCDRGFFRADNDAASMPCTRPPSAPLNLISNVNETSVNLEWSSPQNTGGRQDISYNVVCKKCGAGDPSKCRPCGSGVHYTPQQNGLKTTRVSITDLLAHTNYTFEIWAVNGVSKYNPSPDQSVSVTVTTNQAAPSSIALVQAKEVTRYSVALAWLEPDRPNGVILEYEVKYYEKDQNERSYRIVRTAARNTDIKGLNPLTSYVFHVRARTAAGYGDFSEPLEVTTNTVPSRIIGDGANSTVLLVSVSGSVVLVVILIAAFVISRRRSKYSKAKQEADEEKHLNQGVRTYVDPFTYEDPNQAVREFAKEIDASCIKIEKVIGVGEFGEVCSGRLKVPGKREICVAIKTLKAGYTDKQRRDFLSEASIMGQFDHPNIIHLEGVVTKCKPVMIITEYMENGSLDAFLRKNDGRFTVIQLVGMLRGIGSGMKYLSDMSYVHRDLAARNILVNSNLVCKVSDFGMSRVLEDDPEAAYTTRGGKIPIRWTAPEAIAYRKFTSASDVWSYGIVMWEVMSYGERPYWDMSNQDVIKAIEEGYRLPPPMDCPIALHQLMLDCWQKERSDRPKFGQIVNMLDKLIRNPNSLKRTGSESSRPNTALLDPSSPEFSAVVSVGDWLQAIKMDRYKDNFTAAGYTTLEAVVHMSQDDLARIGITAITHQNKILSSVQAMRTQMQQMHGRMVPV
The test is described as follows: EphA4 phosphorylation in cultured astrocytes (anti-phosphotyrosine immunoprecipitation, Western). As for the experimental part: as §1, §2

For the molecule “IFNγ: Interferon-γ, inflammatory cytokine, inducer of astrocytic gliosis”, the “upregulation of EphA4 expression on astrocytes” value (from here on “upregulation of EphA4 expression”) with EphA4 [1] worked out at 56%. In addition, the “Rho activation (RhoGTP) in EphA4−/− astrocytes” value with Rho (EphA4−/− astrocytes in culture) was “not”. Also, the “Rho activation (RhoGTP) in wildtype astrocytes” value with Rho (wildtype astrocytes in culture) was “activated Rho”. Besides, in the test with astrocytes, the “proliferation response of EphA4−/− astrocytes” value was “markedly decreased” and the “proliferation of WT astrocytes” value is “increased proliferation”.
Take “LIF: Leukemia inhibitory factor, inflammatory cytokine”: the “upregulation of EphA4 expression” value in the test with EphA4 [1] is 69%. Besides, the “upregulation of EphA4 phosphorylation” value with EphA4 [2] stood at 2 fold. Besides, in the test on astrocytes, the “proliferation response of EphA4−/− astrocytes” value is “markedly decreased” and the “proliferation of WT astrocytes” value is recorded as “increased proliferation”.
Consider TNFα, for which the “upregulation of EphA4 expression” value in the test on EphA4 [1] was “no effect”.

B1: IFNγ: Interferon-γ, inflammatory cytokine, inducer of astrocytic gliosis (protein, UniProt P01579 24-161, looked up)
Interferon gamma: QDPYVKEAENLKKYFNAGHSDVADNGTLFLGILKNWKEESDRKIMQSQIVSFYFKLFKNFKDDQSIQKSVETIKEDMNVKFFNSNKKKRDDFEKLTNYSVTDLNVQRKAIHELIQVMAELSPAAKTGKRKRSQMLFRG
With B1, in the test with EphA4 [2], the “upregulation of EphA4 phosphorylation” value is listed as 2 fold.
